Results on five molecules are retold here after publication PMC3877906, “Polypeptide Modulators of TRPV1 Produce Analgesia without Hyperthermia” (Marine Drugs, 2013).

Data set [1] relates to CD-1 mice. Description: hot plate test. The class given is in vivo, mouse. The note with it: 0.1 and 1 mg/kg; 55 °C. As to the method:
The hot plate test is a most simple for TRPV1 inhibitor characterization since TRPV1 play significant role in temperature sensation. Effect of APHC1 and APHC3 on thermal nociception at dose 0.1 mg/kg after intramuscular, intraperitoneal and intravenous administration was measured before. […] Here we assessed changes in thermal nociception to a noxious thermal stimuli elicited by different doses of APHC1 and APHC3 to determine minimal effective dose. […] Both polypeptides reached maximal effect at 0.1 mg/kg.
(§1) All experiments were performed in accordance with the recommendations in the “Principles of Laboratory Animal Care” and after approval by the Animal Care and Use Committee of the Branch of the IBCh RAS (Pushchino, Russia). Adult male CD-1 mice (Animal Breeding Facility Branch of Shemyakin-Ovchinnikov Institute of Bioorganic Chemistry, Russian Academy of Sciences, Pushchino, Russia) weighing 20–25 g were used. Animals were allowed to acclimate in the laboratory for at least five days. Mice were housed at room temperature (23 ± 2 °C) on a 12 h light–dark cycle with food and water available ad libitum. Polypeptides or vehicle was administered intravenously 15 min before testing.
(§2) The significance of the data was determined by analysis of variance (ANOVA) followed by Tukey’s test. Data are presented as mean ± S.E.
Sensitivity to a thermal stimulus was determined by hind paw withdrawal or licking latency using a Hot-Plate Analgesia Meter (Columbus Instruments, Columbus, OH, USA) at 55 °C.

Data set [2] has as its system CD-1 mice. The data set is described as follows: core body temperature (rectal measuring). The class given is in vivo, mouse. As to conditions: for core body temperature, in words: rectal measuring, mice, vs saline. The method, then:
Admittedly, hyperthermia is considered a critical side effect of TRPV1 antagonists, so we assessed the effect of the polypeptides on body temperature. Polypeptides were administered intravenously at doses 0.1 mg/kg and 0.5 mg/kg, and rectal temperature was monitored (Figure 5a,b).
as §1, §2
The MLT1404 Rectal Temperature Probe and Chart Power Lab (ADInstruments Inc., Colorado Springs, CO, USA) was used to record body temperature. During recording, the animals were placed in a MLA5018 Rodent Restrainer (ADInstruments Inc., Colorado Springs, CO, USA). The adaptation period was 20 min. Core body temperature was recorded every minute for 20 min before and 100 min after test compound administration. AMG9810 was dissolved in DMSO and was injected intraperitoneally.

In data set [3] the test system is TRPV1. The class given is cell-based, rat. As to the method: Figure 2 Effects of APHC3 on recombinant TRPV1 expressed in HEK-293 cells. (a) Resting current recorded from a TRPV1-positive cell held at −30 mV. […] Straight lines above the recording indicate application of APHC3 (Long line) and capsaicin (Short lines). The cells were stimulated and rinsed by rapid switching of the bath solution between the control solution and solutions containing the indicated compound. (b) Capsaicin responses in control and in the presence of the 300 nM APHC3 peptide. In each case, the control response was calculated as an average of two acid responses recorded just prior to peptide application. Averaged responses recorded in the presence of APHC3 were normalized to averaged control responses. Those are presented as the mean ± s.d. (n = 4). […] (c, d) Cell responses to the acidification of the bath solution from pH 7.4 to pH 5.5 in control and in the presence of the APHC3 applied at different concentrations as indicated. The experimental traces in (c) and in (d, upper trace) illustrate representative responses of EGFP/TRPV1-positive cells. The bottom trace in (d) represents responses of an EGFP/TRPV1-negative cell assayed simultaneously. (e) Acid responses recorded in the presence of APHC3 (90, 160 and 240 nM) normalized to a control response. The data are presented as the mean ± s.d. (n = 5–10). […] In each case, the control response was calculated as an average of the two acid responses recorded just prior to peptide application. The average of the two acid responses recorded after peptide application was calculated and normalized to the control response. Experimental traces in (c, d) were obtained from three different cells. The changes in bath solution pH (continuous lines) and APHC3 applications (thick straight lines) are shown above the fluorescence traces. Cells were stimulated and rinsed by a rapid replacement of the control bath solution with modified bath solution at pH 5.5 with or without APHC3.
(§3) HEK-293 cells were cultured in Dulbecco’s modified Eagle’s medium (DMEM) (Life Technologies, Grand Island, NY, USA) containing 10% (vol/vol) fetal bovine serum (Thermo Fisher Scientific, Palm Beach, FL, USA), glutamine (1%) and the antibiotic gentamicin (100 μg/mL) (Life Technologies, Grand Island, NY, USA). The pIRES2-EGFP plasmid harboring rat TRPV1 cDNA was transiently transfected into HEK-293 cells by replacing the growth medium in each well with a transfection mixture, containing 1.6 μg of DNA and 4 μL of Lipofectamine (Life Technologies, Grand Island, NY, USA) in 1 mL of serum-free DMEM. After incubating for 6 h, the transfection mixture was replaced with normal culture medium. Cells were assayed within 48–96 h after transfection.
Ion currents were recorded using an Axopatch 200A amplifier, with a DigiData 1322A interface, and pClamp8 software (Molecular Devices, Downingtown, PA, USA). External solutions were delivered by a gravity-driven perfusion system at a rate of 0.1 mL/s. Generally, the whole-cell patch clamp approach was used with recording pipettes containing (mM): 140 CsCl, 1 MgATP, 10 BAPTA, 10 HEPES-CsOH (pH 7.2). The basic bath solution included the following (mM): 140 NaCl, 5 KCl, 1 MgCl2, 1 CaCl2, 10 HEPES-NaOH (pH 7.4).

Data set [4] relates to TRPV1. The data set is described as follows: Ca^2+ imaging, capsaicin responses of TRPV1-positive HEK-293 cells. The data set is classed as cell-based, rat. The note with it: 100 nM. The method, then: as §3
All recordings were performed at room temperature.

For data set [5] the following is noted: stated as background; cited from earlier work. An excerpt: TRPV1 participates in thermoregulation, and almost all its known agonists and antagonists change core body temperature. […] The influence of antagonists on core body temperature is more complex. Antagonists that interact with the intracellular capsaicin-binding pocket of TRPV1 elicit a hyperthermic effect if they are able to inhibit pH-induced TRPV1 currents.

The test system of data set [6] is TRPV1. As to conditions: ref [22],[23]; cited from earlier work. The text has this:
(§4) Several polypeptide modulators of TRPV1 that interact with the extracellular part of the receptor have been reported. […] The structural homology of APHCs to these proteins is minimal so both polypeptides presented structural distinct class of TRPV1 inhibitors.

The test system of data set [7] is mice. The note with it: ref [22],[23]; cited from earlier work.
From the text: as §4

For data set [8], the target named is Transient receptor potential vanilloid 1 receptor (TRPV1) (rat) (UniProt O35433).
Chain of UniProt O35433 (O35433 whole entry): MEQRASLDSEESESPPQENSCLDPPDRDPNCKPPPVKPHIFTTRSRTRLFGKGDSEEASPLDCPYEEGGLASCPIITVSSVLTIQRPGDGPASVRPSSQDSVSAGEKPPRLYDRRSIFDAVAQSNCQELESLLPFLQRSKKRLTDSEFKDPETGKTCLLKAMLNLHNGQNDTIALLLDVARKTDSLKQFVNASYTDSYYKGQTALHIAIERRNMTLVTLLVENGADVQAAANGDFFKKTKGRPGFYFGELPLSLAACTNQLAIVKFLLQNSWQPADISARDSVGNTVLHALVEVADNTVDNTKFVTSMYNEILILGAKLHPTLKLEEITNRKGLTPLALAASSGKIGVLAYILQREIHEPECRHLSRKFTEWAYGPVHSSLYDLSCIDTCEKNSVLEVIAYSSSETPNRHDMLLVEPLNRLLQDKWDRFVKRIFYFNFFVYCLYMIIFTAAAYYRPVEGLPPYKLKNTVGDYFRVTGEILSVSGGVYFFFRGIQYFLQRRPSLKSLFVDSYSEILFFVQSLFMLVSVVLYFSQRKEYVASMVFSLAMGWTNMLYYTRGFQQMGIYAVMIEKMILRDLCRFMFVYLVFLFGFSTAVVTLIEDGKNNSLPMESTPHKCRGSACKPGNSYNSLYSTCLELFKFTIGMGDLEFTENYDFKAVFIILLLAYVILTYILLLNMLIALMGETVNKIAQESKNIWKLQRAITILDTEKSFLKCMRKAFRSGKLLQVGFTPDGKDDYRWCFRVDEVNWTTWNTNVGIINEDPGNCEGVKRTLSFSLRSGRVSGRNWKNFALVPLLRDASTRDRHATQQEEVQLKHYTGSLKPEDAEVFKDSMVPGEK

Turning to aprotinin [reference compound], the “behavioral response to thermal stimuli” value in data set [1] is on record as “did not change behavioral response to thermal stimuli”. In addition, the “increase in core body temperature” value in data set [2] (0.1 mg/kg, not statistically significant vs saline, n = 7) was 0.4–0.5 °C. Further, in data set [2], the “core body temperature, in words” value was “did not change or modestly increase core body temperature”.

Consider `CC(C)(C)c1ccc(/C=C/C(=O)Nc2ccc3c(c2)OCCO3)cc1` [AMG9810, reference compound], for which the “increase in body temperature” value in data set [2] (30 mg/kg i.p., vehicle 10% DMSO, significant, n = 7) came out at 1.6 °C. Also, in data set [2], the “core body temperature, in words” value was “produced hyperthermic effect”.

For `COc1cc(CNC(=O)CCCC/C=C/C(C)C)ccc1O` [capsaicin], the capsaicin-elicited currents entry in data set [3] is “elicited strong inward currents in all examined TRPV1-positive cells”. Also, the “capsaicin-elicited Ca^2+ responses” value in data set [4] is given as “elicited marked Ca^2+ responses”. Besides, the body temperature entry in data set [5] was “significant decrease in body temperature”.

B1: DkTx: spider's polypeptide that activates TRPV1 (protein, UniProt P0CH43 1-79, looked up)
Tau-theraphotoxin-Hs1a: DCAKEGEVCSWGKKCCDLDNFYCPMEFIPHCKKYKPYVPVTTNCAKEGEVCGWGSKCCHGLDCPLAFIPYCEKYRGRND
On to B1, for which the “effect on TRPV1 in vitro” value in data set [6] was “activate TRPV1 in vitro”. In data set [7], the “pain response when injected in mice” value is on record as “mediate the pain response”.

B2: APHC3 (peptide)
chain: GSICLEPKVVGPCTAYFPRFYFNSETGKCTPFIYGGCEGNGNNFETLRACRGICRA
The molecule B2 displayed an inhibition of capsaicin (100 nM)-induced inward currents by 300 nM APHC3, whole-cell patch clamp on TRPV1-positive HEK-293 cells (n = 4) in data set [8] of 25%.
